Laboratory results as given in patent EP0192609A2, “Acylated hexose derivatives and method for their preparation” (CIBA-GEIGY AG, priority 1985, dated 1986).

System: Influenza-Viren
Experiment: own studies in mice infected with influenza viruses (prophylaxis and therapy of virus infection, compound alone without vaccine)
Assay type: in vivo, Mäuse
Settings: per se, i.e. without added vaccine
Text: Aus der Französischen Patentanmeldung Nr. 74 22 909 mit der Publikationsnummer 2 292 486 sind Muramylpeptide vom Typ der Verbindung N-Acetyl-muramyl-L-alanyl-D-isoglutamin ("MDP") bekannt. Diese Verbindungen sind als immunologische Adjuvanzien beschrieben, d.h. sie können in Mischung mit Impfstoffen dazu benützt werden, den Impferfolg zu verbessern. Eigene Untersuchungen, z.B. bei mit Influenza-Viren infizierten Mäusen, haben ergeben, dass N-Acetyl-muramyl-L-alanyl-D-isoglutamin per se, d.h. ohne Beimengung von Impfstoffen, bei der Prophylaxe und Therapie von Virusinfektionen unwirksam ist. Auch ist die Verwendbarkeit strukturell einfacher Muramylpeptide und ihrer Analogen gegen Virusinfektionen bisher nicht beschrieben.

CC(=O)N[C@H]1C(O)O[C@H](CO)[C@@H](O)[C@@H]1O[C@H](C)C(=O)N[C@@H](C)C(=O)N[C@H](CCC(=O)O)C(N)=O (stereo partly drawn) [N-Acetyl-muramyl-L-alanyl-D-isoglutamin]
Wirksamkeit bei der Prophylaxe und Therapie von Virusinfektionen: unwirksam
